Measured values: ChEMBL document CHEMBL1201862, “PubChem BioAssay data set” (2004)
Activity calls are given as the source filed them.

What was measured:
[1] = blockade of melanocortin 4 receptor signaling – cell-based, plate reader, cherry pick, counter-screen for LGR2 antagonist project, dose response (AID 743444); assay type: functional;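 also: transfected HEK 293 cells stimulated with alpha-MSH peptide; potency of inhibitors of the alpha-MSH evoked signal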
[2] = blockers of bursicon-stimulated LGR2 cAMP reporter – cell-based, HEK293, CRE-luciferase reporter, cherry pick, set 2, dose response (AID 743343); assay type: functional;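 also: transfected cells were stimulated with diluted bursicon conditioned medium after compound addition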
[3] = A549 cell cytotoxicity, dose response, cytotoxicity control, plate reader, cherry-pick, antagonist series (AID 743412); assay type: functional, cell-based
[4] = viability loss in HEK293 cells – cell-based, plate reader, cherry-picked samples, cytotoxicity control, dose response (AID 743446); assay type: functional
[5] = toxicity to human hepatoma HepG2 cells – cell-based, cherry-picked samples, cytotoxicity control, dose response (AID 1159577); assay type: functional
[6] = P. falciparum Dd2 growth inhibitors, dose response, SYBR Green, cherry-picked samples (AID 1159567); assay type: functional, cell-based
[7] = toxicity to human HepG2 hepatoma cells – cell-based, plate reader, dry powder samples, cytotoxicity control, dose response (AID 1159569); assay type: functional;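 also: inhibitor potency with signal falling toward the positive control level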
[8] = Dd2 malaria parasite growth inhibition potency – SYBR Green, dry powder samples, dose response (AID 1159566); assay type: functional, cell-based;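 also: potency for growth inhibition with lower SYBR green DNA signal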
[9] = growth inhibition of PfATP4-mutant resistant parasites – NITD609-resistant line, SYBR Green, dry powder, dose response (AID 1159571); assay type: functional, cell-based;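 also: parasites synchronized at ring stage by sorbitol before testing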
[10] = growth inhibition of yeast DHODH-expressing 3D7 parasites – SYBR Green, dry powder samples, dose response (AID 1159570); assay type: functional, cell-based;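 also: parasite growth measured after 72 hours of compound exposure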
[11] = cells; assay type: functional, cell-based
[12] = biological target: T1, Trace amine-associated receptor 1 (Homo sapiens, UniProt Q96RJ0); assay: Counterscreen for agonists of the human trace amine associated receptor 1 (hTAAR1): Fluorescence-based cell-based high throughput dose response assay to identify hTAAR1 agonist that also desensitize TAAR1 receptor response.; assay type: functional
T1 sequence (Q96RJ0 whole entry): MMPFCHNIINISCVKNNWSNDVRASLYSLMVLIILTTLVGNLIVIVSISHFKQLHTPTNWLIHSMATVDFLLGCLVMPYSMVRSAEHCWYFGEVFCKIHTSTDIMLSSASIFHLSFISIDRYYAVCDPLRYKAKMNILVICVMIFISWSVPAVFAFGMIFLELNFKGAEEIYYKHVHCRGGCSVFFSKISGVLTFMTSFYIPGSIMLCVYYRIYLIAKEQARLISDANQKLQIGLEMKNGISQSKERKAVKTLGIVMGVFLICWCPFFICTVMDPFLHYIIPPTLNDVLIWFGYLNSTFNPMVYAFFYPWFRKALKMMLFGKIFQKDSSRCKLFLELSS

[13] = cells; assay type: functional, cell-based; remark: listed apart in the source
[14] = biological target: T1, Trace amine-associated receptor 1; assay: Fluorescence-based cell-based high throughput dose response assay to identify agonists of the human trace amine associated receptor 1 (TAAR1).; assay type: functional
[15] = Luminescence Cell-Based Dose Response HTS to Identify Activators of Luciferase Translation or Activity in H4 […] Cells. [Related pubchem assays: 1829 (Project Summary), 1814 (Primary HTS)]; assay type: functional
[16] = system: H4; assay: Luminescence Cell-Based Dose Response HTS to Identify Activators of 5'UTR Stem-Loop Driven Prion Protein mRNA Translation in H4 Neuroglioblastoma Cells. [Related pubchem assays: 1829 (Project Summary), 1814 (Primary HTS)]; assay type: functional; details: Homo sapiens
[17] = biological target: E3 ubiquitin-protein ligase Mdm2 (Homo sapiens, UniProt Q00987); assay: MDM2-luc reporter signal enhancers, multi-concentration potency testing, MDM2 ubiquitin-protein ligase inhibitor program, whole-cell format, luminescence detection, 384-well microplate (AID 1394); assay type: functional;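 also: MDM2 E3 inhibitors raise luminescence so EC50 is for signal enhancement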
Chain of E3 ubiquitin-protein ligase Mdm2 (Q00987 whole entry): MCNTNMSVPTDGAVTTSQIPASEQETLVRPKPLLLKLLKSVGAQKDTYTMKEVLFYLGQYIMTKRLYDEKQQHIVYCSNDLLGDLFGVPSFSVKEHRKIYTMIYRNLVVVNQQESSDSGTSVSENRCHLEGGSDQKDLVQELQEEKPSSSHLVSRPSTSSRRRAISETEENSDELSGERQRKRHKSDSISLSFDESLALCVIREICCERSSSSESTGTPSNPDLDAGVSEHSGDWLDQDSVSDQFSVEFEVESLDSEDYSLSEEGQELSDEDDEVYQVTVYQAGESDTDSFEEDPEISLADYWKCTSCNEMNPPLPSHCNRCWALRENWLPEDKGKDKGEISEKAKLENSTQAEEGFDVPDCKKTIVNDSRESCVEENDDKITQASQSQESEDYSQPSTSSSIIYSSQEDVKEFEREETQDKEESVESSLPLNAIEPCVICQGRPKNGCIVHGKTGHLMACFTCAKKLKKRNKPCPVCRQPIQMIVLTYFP

[18] = biological target: T2, Mannose-6-phosphate isomerase (Homo sapiens, UniProt P34949); assay: MPI inhibition at elevated mannose 6-phosphate – biochemical, fluorescence intensity, high mannose 6-phosphate, primary screen (AID 1220)
T2 sequence (P34949 whole entry): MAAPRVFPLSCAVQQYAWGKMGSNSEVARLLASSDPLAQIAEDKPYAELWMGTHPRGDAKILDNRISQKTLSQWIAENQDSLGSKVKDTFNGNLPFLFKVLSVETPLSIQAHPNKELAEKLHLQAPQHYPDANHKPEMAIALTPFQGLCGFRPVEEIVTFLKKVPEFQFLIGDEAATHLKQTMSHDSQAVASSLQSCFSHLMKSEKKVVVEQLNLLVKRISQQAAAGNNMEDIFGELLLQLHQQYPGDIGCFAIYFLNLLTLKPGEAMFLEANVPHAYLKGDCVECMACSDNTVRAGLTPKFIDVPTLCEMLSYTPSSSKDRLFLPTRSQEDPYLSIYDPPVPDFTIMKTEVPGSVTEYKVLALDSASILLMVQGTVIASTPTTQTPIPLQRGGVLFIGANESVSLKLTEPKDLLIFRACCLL

O=C(Nc1ccc(Cl)cc1Cl)c1ccc2c(c1)OCCO2
AC50 [1]: 12.9 µM (active)
AC50 [2]: 6.49 µM (active)
AC50 [3]: 42.4 µM (active)
AC50 [4]: > 52 µM (inactive)

COc1ccc(C#Cc2ccc([C@H]3[C@@H](CO)N4CCCCN(C(=O)Nc5ccccc5F)C[C@H]34)cc2)cc1
AC50 [5]: 7 µM (active)
AC50 [6]: 1.02 µM (active)

COc1ccccc1C#Cc1ccc2c(c1)[C@H]1NCC[C@H]1[C@@H](CO)N2
AC50 [6]: 2.45 µM (active)
AC50 [7]: 38.1 µM (active)
AC50 [8]: 2.02 µM (active)
AC50 [9]: 3.13 µM (active)
AC50 [10]: 3.54 µM (active)

Cc1cc(S(=O)(=O)Nc2cccc(Cl)c2)c(C)s1
IC50 [11]: > 29.9 µM (inactive)
IC50 [12]: 8.66 µM (active)
EC50 [13]: > 29.9 µM (inactive)
EC50 [14]: 4.88 µM (active)

CO[C@@H]1CN(C)C(=O)c2cc(NC(=O)c3nc4ccccc4s3)ccc2OC[C@H](C)N(Cc2cccnc2)C[C@@H]1C
AC50 [5]: 33.4 µM (active)
AC50 [6]: 5.35 µM (active)

Cc1cccc(Nc2nnc(SCC3CCCCO3)s2)c1 (stereo unspecified)
EC50 [15]: 27.2 µM (active)
EC50 [16]: 21.8 µM (active)
EC50 [17]: 11.2 µM (not active)

Cc1cccc(N2C(=O)/C(=C/N3CCN(C(=O)c4ccco4)CC3)C(=O)NC2=S)c1
IC50 [18]: > 50 µM (not active)
